# Data published in the supplement of paper PMC10307832.
# Key:
# Assay in all cases: relative viability (nuclei count vs DMSO), 5 days (fraction); higher = more cells survive
# Erlotinib + Phenformin = compound: C#Cc1cccc(Nc2ncnc3cc(OCCOC)c(OCCOC)cc23)c1 [Erlotinib] + N=C(N)NC(=N)NCCc1ccccc1 [Phenformin] (partner 250 µM)
# In short: (§1)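 A single step with final 0.05% Triton X-100, 1% formaldehyde and 1 ug/ml Hoechst fixed the cells and stained nuclei 5 days after treatment. Lung cancer cell lines in 1536-well plates had been treated by pin tool the day after seeding with one drug alone or a fixed anchor-drug dose plus five library-drug doses (not always all listed) in √10 steps, and nuclei were counted on 4× images. Relative viability is the ratio of nuclei in treated wells to nuclei in vehicle wells, taken as the median of duplicate plates.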
# AT9283 + Navitoclax = compound: O=C(Nc1c[nH]nc1-c1nc2ccc(CN3CCOCC3)cc2[nH]1)NC1CC1 [AT9283] + CC1(C)CCC(c2ccc(Cl)cc2)=C(CN2CCN(c3ccc(C(=O)NS(=O)(=O)c4ccc(N[C@H](CCN5CCOCC5)CSc5ccccc5)c(S(=O)(=O)C(F)(F)F)c4)cc3)CC2)C1 [Navitoclax] (partner 0.5 µM)
# In short: as §1
# AT9283 + Crizotinib = compound: O=C(Nc1c[nH]nc1-c1nc2ccc(CN3CCOCC3)cc2[nH]1)NC1CC1 [AT9283] + C[C@@H](Oc1cc(-c2cnn(C3CCNCC3)c2)cnc1N)c1c(Cl)ccc(F)c1Cl [Crizotinib] (partner 1 µM)
# In short: as §1
# Erlotinib + Vorinostat = compound: C#Cc1cccc(Nc2ncnc3cc(OCCOC)c(OCCOC)cc23)c1 [Erlotinib] + O=C(CCCCCCC(=O)Nc1ccccc1)NO [Vorinostat] (partner 1 µM)
# In short: as §1
# AT9283 + Phenformin = compound: O=C(Nc1c[nH]nc1-c1nc2ccc(CN3CCOCC3)cc2[nH]1)NC1CC1 [AT9283] + N=C(N)NC(=N)NCCc1ccccc1 [Phenformin] (partner 250 µM)
# In short: as §1
Cell Line,relative viability (Erlotinib + Phenformin; first compound 0.02 µM),relative viability (Erlotinib + Phenformin; first compound 0.2 µM),relative viability (Erlotinib + Phenformin; first compound 0.6325 µM),relative viability (Erlotinib + Phenformin; first compound 2 µM),relative viability (AT9283 + Navitoclax; first compound 0.003 µM),relative viability (AT9283 + Navitoclax; first compound 0.03 µM),relative viability (AT9283 + Navitoclax; first compound 0.09487 µM),relative viability (AT9283 + Navitoclax; first compound 0.3 µM),relative viability (AT9283 + Crizotinib; first compound 0.003 µM),relative viability (AT9283 + Crizotinib; first compound 0.03 µM),relative viability (AT9283 + Crizotinib; first compound 0.09487 µM),relative viability (AT9283 + Crizotinib; first compound 0.3 µM),relative viability (Erlotinib + Vorinostat; first compound 0.02 µM),relative viability (Erlotinib + Vorinostat; first compound 0.2 µM),relative viability (Erlotinib + Vorinostat; first compound 0.6325 µM),relative viability (Erlotinib + Vorinostat; first compound 2 µM),relative viability (AT9283 + Phenformin; first compound 0.003 µM),relative viability (AT9283 + Phenformin; first compound 0.03 µM),relative viability (AT9283 + Phenformin; first compound 0.09487 µM),relative viability (AT9283 + Phenformin; first compound 0.3 µM)
RERF-LC-KJ,0.393,0.372,0.311,0.337,0.834,0.554,0.223,0.217,0.788,0.526,0.293,0.23,0.716,0.605,0.624,0.453,0.408,0.364,0.25,0.242
NCI-H1915,0.398,0.378,0.383,0.35,0.657,0.72,0.504,0.174,0.842,0.826,0.226,0.255,0.536,0.529,0.508,0.485,0.362,0.342,0.174,0.168
NCI-H1666,0.562,0.584,0.522,0.533,1.08,0.885,0.432,0.315,1.08,0.777,0.377,0.311,–,0.963,0.775,0.78,0.587,0.516,0.404,0.35
NCI-H1650,0.4,0.263,0.411,0.274,1.34,1,0.29,0.232,1.01,0.596,0.267,0.217,0.556,0.559,0.488,0.411,0.491,0.385,0.223,0.175
NCI-H322M,0.816,0.592,0.539,0.421,1.27,0.802,0.731,0.436,0.888,0.611,0.446,0.337,0.832,0.716,0.688,0.546,0.65,0.486,0.414,0.387
LC-2-ad,0.566,0.643,0.592,0.534,0.506,0.232,0.0899,0.101,0.44,0.275,0.288,0.238,0.731,0.794,0.75,0.589,0.449,0.363,0.224,0.193
HCC-827,0.232,0.144,0.139,0.133,0.995,0.879,0.449,0.326,0.91,0.808,0.41,0.283,0.228,0.186,0.121,0.132,0.399,0.352,0.356,0.196
NCI-H2023,0.435,0.418,0.471,0.378,1.04,0.71,0.383,0.119,0.704,0.471,0.196,0.123,0.754,0.475,0.645,0.47,0.448,0.389,0.193,0.131
